# Laboratory results as given in ChEMBL document CHEMBL1201862, “PubChem BioAssay data set” (2004).
#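 Method: 48-hour compound exposure of cells in 96-well plates, five concentrations, linear interpolation of endpoints. GI50 = concentration required for 50% inhibition of growth.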 The source made the active and inactive calls. Cut-off read from the data, not from the text of the source: active = GI50 up to about 1.1 µM and inactive = higher.
# Legend:
# Assay in all cases: NCI-60 cell line screen, 48 h
# EKVX = system: EKVX
# OVCAR-4 = system: OVCAR-4
# NCI-H226 = system: NCI-H226
# HT-29 = system: HT-29
# NCI-H460 = system: NCI-H460
# RPMI-8226 = system: RPMI-8226
# SN12C = system: SN12C
# MDA-MB-435 = system: MDA-MB-435
# UACC-62 = system: UACC-62
# SK-MEL-5 = system: SK-MEL-5
# HCT-15 = system: HCT-15
# ACHN = system: ACHN
# Malme-3M = system: Malme-3M
# HCT-116 = system: HCT-116
# TK-10 = system: TK-10
# HOP-62 = system: HOP-62
# IGROV-1 = system: IGROV-1
# Hs-578T = system: Hs-578T
# SF-268 = system: SF-268
# SNB-75 = system: SNB-75
Compound,GI50 (EKVX),GI50 (OVCAR-4),GI50 (NCI-H226),GI50 (HT-29),GI50 (NCI-H460),GI50 (RPMI-8226),GI50 (SN12C),GI50 (MDA-MB-435),GI50 (UACC-62),GI50 (SK-MEL-5),GI50 (HCT-15) [µM],GI50 (ACHN),GI50 (Malme-3M),GI50 (HCT-116),GI50 (TK-10),GI50 (HOP-62),GI50 (IGROV-1),GI50 (Hs-578T),GI50 (SF-268),GI50 (SNB-75)
COc1ccc(C(O)c2ccccn2)cc1 (stereo not given),> 100 µM (inactive),> 100 µM (inactive),> 100 µM (inactive),> 100 µM (inactive),> 100 µM (inactive),> 100 µM (inactive),> 100 µM (inactive),> 100 µM (inactive),> 100 µM (inactive),> 100 µM (inactive),> 100,> 100 µM (inactive),> 100 µM (inactive),> 100 µM (inactive),> 100 µM (inactive),> 100 µM (inactive),> 100 µM (inactive),> 100 µM (inactive),> 100 µM (inactive),> 100 µM (inactive)
COc1ccc2oc(S(=O)(=O)N3CC(CCl)c4ccc([N+](=O)[O-])cc43)cc2c1 (stereo not given),0.173 µM (active),6.28 µM (inactive),0.127 µM (active),0.146 µM (active),0.102 µM (active),0.107 µM (active),0.179 µM (active),0.0177 µM (active),0.055 µM (active),0.0752 µM (active),0.0703,0.179 µM (active),0.767 µM (active),0.0908 µM (active),15.1 µM (inactive),0.0381 µM (active),0.0815 µM (active),0.0454 µM (active),0.299 µM (active),0.0933 µM (active)
COc1cc([N+](=O)[O-])c(S(=O)(=O)O)cc1-n1nc(C(=O)Nc2ccccc2)n[n+]1-c1cc(S(=O)(=O)[O-])c([N+](=O)[O-])cc1OC,> 100 µM (inactive),> 100 µM (inactive),> 100 µM (inactive),56 µM (inactive),> 100 µM (inactive),> 100 µM (inactive),> 100 µM (inactive),85.5 µM (inactive),42.2 µM (inactive),> 100 µM (inactive),45.4,93.8 µM (inactive),> 100 µM (inactive),> 100 µM (inactive),> 100 µM (inactive),> 100 µM (inactive),> 100 µM (inactive),> 100 µM (inactive),> 100 µM (inactive),> 100 µM (inactive)
NC(CSC(=O)c1ccccc1)C(=O)O (stereo not given),> 100 µM (inactive),> 100 µM (inactive),> 100 µM (inactive),> 100 µM (inactive),> 100 µM (inactive),> 100 µM (inactive),> 100 µM (inactive),> 100 µM (inactive),> 100 µM (inactive),> 100 µM (inactive),> 100,> 100 µM (inactive),> 100 µM (inactive),> 100 µM (inactive),> 100 µM (inactive),> 100 µM (inactive),> 100 µM (inactive),> 100 µM (inactive),> 100 µM (inactive),> 100 µM (inactive)
CCCCCCCCCc1cc(-c2ccc(C=O)s2)sc1-c1ccc(C=O)s1,70.6 µM (inactive),24.4 µM (inactive),3.04 µM (inactive),39.5 µM (inactive),25.1 µM (inactive),11.4 µM (inactive),32.5 µM (inactive),22.6 µM (inactive),7.26 µM (inactive),15.7 µM (inactive),24.8,30.7 µM (inactive),40.5 µM (inactive),16.6 µM (inactive),6.47 µM (inactive),27.7 µM (inactive),21 µM (inactive),17.9 µM (inactive),34.8 µM (inactive),27 µM (inactive)
CC[C@@]1(OC(=O)C(N)CCC(=O)O)C(=O)OCc2c1cc1n(c2=O)Cc2cc3ccccc3nc2-1 (stereo not given in full),1.44 µM (inactive),1.24 µM (inactive),0.0502 µM (active),0.261 µM (active),0.0112 µM (active),0.148 µM (active),0.0244 µM (active),0.219 µM (active),< 0.0152 µM (active),0.0736 µM (active),0.453,0.0187 µM (active),0.266 µM (active),0.122 µM (active),4.33 µM (inactive),< 0.0124 µM (active),0.513 µM (active),7.05 µM (inactive),0.0256 µM (active),0.0526 µM (active)
O=c1c(F)cn(Cc2c(Cl)cccc2Cl)c(=O)n1Cc1c(Cl)cccc1Cl,21.4 µM (inactive),17.1 µM (inactive),> 71.6 µM (inactive),18.3 µM (inactive),> 31.6 µM (inactive),> 31.6 µM (inactive),> 31.6 µM (inactive),29.6 µM (inactive),26 µM (inactive),18.1 µM (inactive),> 31.6,> 31.6 µM (inactive),> 31.6 µM (inactive),23.8 µM (inactive),> 31.6 µM (inactive),> 31.6 µM (inactive),> 31.6 µM (inactive),> 31.6 µM (inactive),> 31.6 µM (inactive),16.5 µM (inactive)
[N-]=[N+]=Nc1c(Cl)c(Cl)nc2ccccc12,92.7 µM (inactive),85.7 µM (inactive),66.7 µM (inactive),> 100 µM (inactive),> 100 µM (inactive),62.8 µM (inactive),76 µM (inactive),> 100 µM (inactive),> 100 µM (inactive),> 100 µM (inactive),> 100,91.4 µM (inactive),> 100 µM (inactive),> 100 µM (inactive),95.9 µM (inactive),> 100 µM (inactive),77.6 µM (inactive),61.8 µM (inactive),> 100 µM (inactive),44.8 µM (inactive)
CN(C)CCNCc1ccc2c(-c3ccccc3)nc3cc(Cl)c(Cl)cc3n12,15.3 µM (inactive),11.3 µM (inactive),17.9 µM (inactive),8.3 µM (inactive),9.68 µM (inactive),12.8 µM (inactive),9.93 µM (inactive),8.69 µM (inactive),8.85 µM (inactive),8.32 µM (inactive),9.62,7.6 µM (inactive),17.5 µM (inactive),7.74 µM (inactive),10.9 µM (inactive),7.33 µM (inactive),7.59 µM (inactive),17.9 µM (inactive),13.9 µM (inactive),7.46 µM (inactive)
O=C1C=CC(=O)N1c1ccc(I)cc1,23.3 µM (inactive),20.2 µM (inactive),22.9 µM (inactive),18.9 µM (inactive),33.5 µM (inactive),6.11 µM (inactive),20.6 µM (inactive),16.4 µM (inactive),17.5 µM (inactive),18.6 µM (inactive),11.5,17.3 µM (inactive),17.9 µM (inactive),15.6 µM (inactive),16.4 µM (inactive),15.7 µM (inactive),24.9 µM (inactive),23.4 µM (inactive),27 µM (inactive),21.8 µM (inactive)
Cc1ccc(-n2nnc(C(N)=O)c2O)cc1,> 100 µM (inactive),> 100 µM (inactive),> 100 µM (inactive),> 100 µM (inactive),> 100 µM (inactive),> 100 µM (inactive),> 100 µM (inactive),> 100 µM (inactive),> 100 µM (inactive),> 100 µM (inactive),> 100,> 100 µM (inactive),> 100 µM (inactive),> 100 µM (inactive),> 100 µM (inactive),> 100 µM (inactive),> 100 µM (inactive),> 100 µM (inactive),> 100 µM (inactive),> 100 µM (inactive)
C[C@]1(O)CC(=O)c2c(c(-c3ccc4cc5c(c(O)c4c3O)C(=O)C[C@@](C)(O)C5)c3cccc(O)c3c2O)C1,11.2 µM (inactive),7 µM (inactive),3.85 µM (inactive),5.71 µM (inactive),3.24 µM (inactive),4.67 µM (inactive),6.22 µM (inactive),7.05 µM (inactive),5.64 µM (inactive),3.66 µM (inactive),3.76,4.04 µM (inactive),6.35 µM (inactive),3.48 µM (inactive),6.82 µM (inactive),3.48 µM (inactive),4.67 µM (inactive),4.06 µM (inactive),4.31 µM (inactive),7.59 µM (inactive)
CC(NC(=O)C(NC(=O)CNC(=O)OC(C)(C)C)C(C)C)C(=O)Oc1c(Cl)c(Cl)c(Cl)c(Cl)c1Cl (stereo not given),27.4 µM (inactive),18.8 µM (inactive),19.8 µM (inactive),26.4 µM (inactive),18.6 µM (inactive),45.2 µM (inactive),19.2 µM (inactive),23.4 µM (inactive),18.2 µM (inactive),17.1 µM (inactive),17.5,21.8 µM (inactive),21.5 µM (inactive),17.3 µM (inactive),26.8 µM (inactive),18.4 µM (inactive),20.3 µM (inactive),20.1 µM (inactive),23 µM (inactive),28 µM (inactive)
Cc1cc(N(CCC#N)CCC#N)ccc1/C=C(\NC(=O)/C=C/c1ccccc1)C(=O)NN,> 73.3 µM (inactive),> 100 µM (inactive),> 55.6 µM (inactive),> 100 µM (inactive),> 66.8 µM (inactive),> 100 µM (inactive),> 100 µM (inactive),> 100 µM (inactive),> 91 µM (inactive),> 79.6 µM (inactive),> 100,> 80.9 µM (inactive),> 100 µM (inactive),99.1 µM (inactive),> 51.3 µM (inactive),37.1 µM (inactive),> 75.3 µM (inactive),31.3 µM (inactive),> 53.2 µM (inactive),24.7 µM (inactive)
